Laboratory results from US20140004201A1, “Treatment of Vascular Diseases Using Encapsulated Cells Encoding and Secreting GLP-1, or a Fragment or Variant Thereof” (Biocompatibles UK Ltd., priority 2010, published 2014).
Where no end group is shown, it is not given here.

How the values were obtained:
Rin-5F cells = experiment: Anti-apoptotic efficacy, cycloheximid induced apoptosis; type: cell-based, rat; settings: 24 hours
Procedure: 40.000 Rin-5F cells were seeded per 96 well and cultivated for 2 days in RPMI supplemented with 1% L-Glutamin and 10% fetal calf serum. […] After 24 hours cell viability is quantified using AlamarBlue.

[1] = In vitro human plasma stability of GLP-1 CM peptides; type: in vitro ADME; settings: 20 ng/ml, 37° C., 3 hours
Procedure: Synthetic GLP-1 peptides (SEQ ID NO: 1syn, SEQ ID NO: 6syn, SEQ ID NO: 7rec, SEQ ID NO: 8syn) were incubated at concentrations of 20 ng/ml with human plasma at 37° C. and 5% CO2, for 3 hours. Dipeptidylpeptidase activity of the plasma was inhibited by a DPP-IV inhibitor (#DPP4, Biotrend).

Molecule	anti-apoptotic effect (Rin-5F cells; 1 nM CM1, cycloheximid, serum free, AlamarBlue)	cell viability (Rin-5F cells; CHX 10 μg/ml and 100 μg/ml, different concentrations of CM1)	stability in human plasma in vitro (active GLP) [1]
GLP-1(7-37)-IP2-GLP-1(7-37) [CM1]	significant anti-apoptotic effect	significant (p<0.01) increase of cell viability	–
HAEGTFTSDVSSYLEGQAAKEFIAWLVKGRGRRDFPEEVAIAEELG [SEQ ID NO:8, GLP-1(7-37)-IP2]	–	–	significantly stabilized
GLP-1(7-37)-IP2-RR-GLP2 (protein, Description of sequence SEQ ID No 7 (ID7rec, CM2) corresponds to GLP-1(7-37)-IP2-RR-GLP2, 83 aa, 9.4 kD) HAEGTFTSDVSSYLEGQAAKEFIAWLVKGRGRRDFPEEVAIAEELGRRHADGSFSDEMSTILDNLATRDFINWLIQTKITDKK	–	–	significantly stabilized
